Molecules are shown by their SMILES.

The target in this assay is T1, CCR2 (Homo sapiens, UniProt P41597).
T1 construct: host or cells: THP-1 (human monocytic cell line)
Briefly: MCP-1 Receptor Binding Assay in THP-1 Cells. The following applies: read-out: MCP1B_v3 IC50. The method, boiled down:
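Human monocytic THP-1 cells incubated 2 h at 30 °C with 0.5 nM 125I-MCP-1 and varying concentrations of test compound or unlabelled MCP-1. Cells filter-harvested and counted by scintillation; blank subtracted, compared with vehicle; nonspecific binding with 1 μM cold MCP-1.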

T1 sequence (P41597 whole entry): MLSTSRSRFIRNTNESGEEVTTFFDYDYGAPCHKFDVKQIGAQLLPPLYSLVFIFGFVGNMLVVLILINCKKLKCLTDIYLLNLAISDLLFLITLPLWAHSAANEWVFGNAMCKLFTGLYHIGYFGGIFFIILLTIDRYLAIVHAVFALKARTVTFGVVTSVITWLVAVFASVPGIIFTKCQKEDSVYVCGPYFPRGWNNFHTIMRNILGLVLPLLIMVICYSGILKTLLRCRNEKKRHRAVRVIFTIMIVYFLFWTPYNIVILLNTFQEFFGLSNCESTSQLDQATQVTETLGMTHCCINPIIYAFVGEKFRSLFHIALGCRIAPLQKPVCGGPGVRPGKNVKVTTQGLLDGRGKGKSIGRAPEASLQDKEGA

On to `COC1COCCC1N[C@@H]1C[C@H]2CN(C(=O)OCCNC(C)=O)C[C@@]2(C(=O)N2CCc3ccc(C(F)(F)F)cc3C2)C1` (relative stereo) [Example 55, (3aR,5R,6aR)-2-Acetamidoethyl 5-(((3S*,4S*)-3-methoxytetrahydro-2H-pyran-4-yl)amino)-3a-(7-(trifluoromethyl)-1,2,3,4-tetrahydroisoquinoline-2-carbonyl)hexahydrocyclopenta[c]pyrrole-2(1H)-carboxylate], for which the IC50 worked out at 10 nM.
`COC1COCCC1N[C@@H]1C[C@H]2CN(C(N)=O)C[C@@]2(C(=O)N2CCc3ccc(C(F)(F)F)cc3C2)C1` (relative stereo) [Example 6, (3aR,5R,6aR)-5-(((3S*,4S*)-3-Methoxytetrahydro-2H-pyran-4-yl)amino)-3a-(7-(trifluoromethyl)-1,2,3,4-tetrahydroisoquinoline-2-carbonyl)hexahydrocyclopenta-[c]pyrrole-2(1H)-carboxamide]: the half-maximal inhibitory concentration (IC50) was 10 nM.
Take `COC1COCCC1N[C@@H]1C[C@H]2CN(C(=O)NCC(C)C)C[C@@]2(C(=O)N2CCc3ncc(C(F)(F)F)cc3C2)C1` (relative stereo) [Example 15, (3aR,5R,6aR)-N-Isobutyl-5-(((3S*4S*)-(3-methoxytetrahydro-2H-pyran-4-yl)amino)-3a-(3-(trifluoromethyl)-5,6,7,8-tetrahydro-1,6-naphthyridine-6-carbonyl)hexahydrocyclopenta-[c]pyrrole-2(1H)-carboxamide]: the half-inhibitory concentration (IC50) came out at 110 nM.
As to `C=CCOC(=O)N1C[C@@H]2C[C@@H](NC3CCOCC3OC)C[C@]2(C(=O)N2CCc3ncc(C(F)(F)F)cc3C2)C1` (relative stereo) [Example 38, (3aR,5R,6aR)-Allyl 5-(((3S*,4S*)-3-methoxytetrahydro-2H-pyran-4-yl)amino)-3a-(3-(trifluoromethyl)-5,6,7,8-tetrahydro-1,6-naphthyridine-6-carbonyl)hexahydrocyclopenta[c]pyrrole-2(1H)-carboxylate], the half-inhibitory concentration (IC50) was 40 nM.
Turning to `COC1COCCC1N[C@@H]1C[C@H]2CN(C(N)=S)C[C@@]2(C(=O)N2CCc3ncc(C(F)(F)F)cc3C2)C1` (relative stereo) [Example 25, (3aR,5R,6aR)-5-(((3S*,4S*)-3-Methoxytetrahydro-2H-pyran-4-yl)amino)-3a-(3-(trifluoromethyl)-5,6,7,8-tetrahydro-1,6-naphthyridine-6-carbonyl)hexahydrocyclopenta-[c]pyrrole-2(1H)-carbothioamide], the IC50 was 90 nM.
As for `COC1COCCC1N[C@@H]1C[C@H]2CN(C(=O)c3cocn3)C[C@@]2(C(=O)N2CCc3ncc(C(F)(F)F)cc3C2)C1` (relative stereo) [Example 72, ((3aR,5R,6aR)-5-(((3S*,4S*)-3-Methoxytetrahydro-2H-pyran-4-yl)amino)-2-(oxazole-4-carbonyl)octahydrocyclopenta[c]pyrrol-3a-yl)(3-(trifluoromethyl)-7,8-dihydro-1,6-naphthyridin-6(5H)-yl)methanone], the IC50 was determined as 30 nM.
Take `COC1COCCC1N[C@@H]1C[C@H]2CN(C(=O)OCCC(F)(F)F)C[C@@]2(C(=O)N2CCc3ncc(C(F)(F)F)cc3C2)C1` (relative stereo) [Example 51, (3aR,5R,6aR)-3,3,3-Trifluoropropyl 5-(((3S*,4S*)-3-methoxytetrahydro-2H-pyran-4-yl)amino)-3a-(3-(trifluoromethyl)-5,6,7,8-tetrahydro-1,6-naphthyridine-6-carbonyl)hexahydrocyclo-penta[c]pyrrole-2(1H)-carboxylate]: the half-inhibitory concentration (IC50) came to 140 nM.
Take `COC1COCCC1N[C@@H]1C[C@H]2CN(S(=O)(=O)NCc3ccccc3)C[C@@]2(C(=O)N2CCc3ncc(C(F)(F)F)cc3C2)C1` (relative stereo) [Example 33, (3aR,5R,6aR)-N-Benzyl-5-(((3S*,4S*)-3-methoxytetrahydro-2H-pyran-4-yl)amino)-3a-(3-(trifluoromethyl)-5,6,7,8-tetrahydro-1,6-naphthyridine-6-carbonyl)hexahydrocyclopenta[c]pyrrole-2(1H)-sulfonamide]: the IC50 is 410 nM.
As for `CNC(=S)N(C1CCOCC1OC)[C@@H]1C[C@H]2CN(C(=O)OCc3ccccc3)C[C@@]2(C(=O)N2CCc3ncc(C(F)(F)F)cc3C2)C1` (relative stereo) [Example 57, (3aR,5R,6aR)-Benzyl 5-(1-((3S*,4S*)-3-methoxytetrahydro-2H-pyran-4-yl)-3-methylthioureido)-3a-(3-(trifluoromethyl)-5,6,7,8-tetrahydro-1,6-naphthyridine-6-carbonyl)hexahydrocyclopenta[c]pyrrole-2(1H)-carboxylate], the concentration for half-maximal inhibition (IC50) amounted to 2030 nM.
The value for `CCN(CC)CCOC(=O)N1C[C@@H]2C[C@@H](NC3CCOCC3OC)C[C@]2(C(=O)N2CCc3ccc(C(F)(F)F)cc3C2)C1` (relative stereo) [Example 41, (3aR,5R,6aR)-2-(Diethylamino)ethyl 5-(((3S*,4S*)-3-methoxytetrahydro-2H-pyran-4-yl)amino)-3a-(7-(trifluoromethyl)-1,2,3,4-tetrahydroisoquinoline-2-carbonyl)hexahydrocyclopenta[c]pyrrole-2(1H)-carboxylate] was 10 nM.

The values above are taken from US9024017B2, “Octahydro-cyclopentapyrrolyl antagonists of CCR2” (Janssen Pharmaceutica NV, priority 2012, dated 2015).
